Source: article PMC6597290 (Nature, 2019)

Legend:
BT4096 = target: T1, BT4096 (Bacteroides thetaiotaomicron, UniProt Q8A0C5); test: LC-MS time course of deacetylation; assay type: biochemical; conditions: Tris-HCl 10 mM pH 7, 2.5 mM MgSO4 and Mn, 37 °C; 0-250 µM substrate
T1 sequence (Q8A0C5 21-460): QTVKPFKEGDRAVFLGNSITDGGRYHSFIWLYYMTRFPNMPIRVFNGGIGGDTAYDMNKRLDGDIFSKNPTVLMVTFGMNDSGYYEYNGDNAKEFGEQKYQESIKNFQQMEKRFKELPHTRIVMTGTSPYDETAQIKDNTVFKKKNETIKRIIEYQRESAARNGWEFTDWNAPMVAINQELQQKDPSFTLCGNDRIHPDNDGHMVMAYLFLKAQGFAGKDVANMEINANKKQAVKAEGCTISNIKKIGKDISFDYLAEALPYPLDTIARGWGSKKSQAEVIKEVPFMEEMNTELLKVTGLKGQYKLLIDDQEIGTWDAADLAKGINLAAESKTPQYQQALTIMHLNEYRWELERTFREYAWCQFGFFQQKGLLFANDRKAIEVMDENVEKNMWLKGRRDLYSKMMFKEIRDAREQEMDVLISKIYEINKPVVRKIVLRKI

BT2068 = target: T2, BT2068 (Bacteroides thetaiotaomicron, UniProt Q8A618); test: LC-MS drug depletion by E. coli expressing bt2068; assay type: cell-based; conditions: whole E. coli cells, anaerobic, 37 °C
T2 sequence (Q8A618 1-253): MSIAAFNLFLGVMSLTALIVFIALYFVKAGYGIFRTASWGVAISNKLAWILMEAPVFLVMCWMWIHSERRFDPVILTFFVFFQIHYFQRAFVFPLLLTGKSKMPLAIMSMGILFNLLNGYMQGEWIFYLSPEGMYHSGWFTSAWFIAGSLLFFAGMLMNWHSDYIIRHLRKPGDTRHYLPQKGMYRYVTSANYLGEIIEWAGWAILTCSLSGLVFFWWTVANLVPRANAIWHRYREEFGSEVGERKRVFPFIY

| SMILES | LC-MS time course of deacetylation (BT4096) | LC-MS drug depletion by E. coli expressing bt2068 (BT2068) |
| --- | --- | --- |
| CNCCN1C(=O)[C@H](OC(C)=O)[C@H](c2ccc(OC)cc2)Sc2ccccc21 [N-desmethyldiltiazem] | BT4096 also deacetylates N-desmethyldiltiazem | – |
| C#C[C@]1(O)CC[C@H]2[C@@H]3CCC4=CC(=O)CC[C@@H]4[C@H]3CC[C@@]21CC [levonorgestrel] | – | BT2068 also metabolizes the structurally related compounds levonorgestrel and progesterone |
| CC(=O)[C@H]1CC[C@H]2[C@@H]3CCC4=CC(=O)CC[C@]4(C)[C@H]3CC[C@]12C [progesterone] | – | BT2068 also metabolizes the structurally related compounds levonorgestrel and progesterone |
| COc1ccc([C@@H]2Sc3ccccc3N(CCN(C)C)C(=O)[C@@H]2OC(C)=O)cc1 [diltiazem] | demonstrated that the purified enzyme catalyzes the drug transformation (Fig. 3c) | – |
